Measured values published in the supplement of paper PMC10307832.

Legend:
Test in all cases: relative viability (nuclei count vs DMSO), 5 days (fraction); higher = more cells survive
ALW-II-49-7 + Crizotinib = compound: Cc1ccc(C(=O)Nc2cccc(C(F)(F)F)c2)cc1Nc1cncc(C(N)=O)c1 [ALW-II-49-7] + C[C@@H](Oc1cc(-c2cnn(C3CCNCC3)c2)cnc1N)c1c(Cl)ccc(F)c1Cl [Crizotinib] (partner 1 µM)
Outline: (§1)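 Five library-drug doses in √10 steps were combined with a fixed anchor-drug dose, or a single drug was given alone, by pin tool to lung cancer cell lines in 1536-well plates the day after seeding. Nuclei were stained and counted after 5 days. Relative viability is the nuclei count in treated wells over that in vehicle wells, taken as the median of duplicate plates.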

XMD13-2 + Phenformin = compound: C1CC1C(=O)NC2=NNC3=C2C=CC(=C3)C4=CC(=CC=C4)C(=O)NC5CC5 [XMD13-2] + N=C(N)NC(=N)NCCc1ccccc1 [Phenformin] (partner 250 µM)
Outline: as §1

XMD13-2 + Foretinib = compound: C1CC1C(=O)NC2=NNC3=C2C=CC(=C3)C4=CC(=CC=C4)C(=O)NC5CC5 [XMD13-2] + COc1cc2c(Oc3ccc(NC(=O)C4(C(=O)Nc5ccc(F)cc5)CC4)cc3F)ccnc2cc1OCCCN1CCOCC1 [Foretinib] (partner 0.25 µM)
Outline: as §1

ALW-II-49-7 + Lapatinib = compound: Cc1ccc(C(=O)Nc2cccc(C(F)(F)F)c2)cc1Nc1cncc(C(N)=O)c1 [ALW-II-49-7] + CS(=O)(=O)CCNCc1ccc(-c2ccc3ncnc(Nc4ccc(OCc5cccc(F)c5)c(Cl)c4)c3c2)o1 [Lapatinib] (partner 2 µM)
Outline: as §1

| Cell Line | relative viability (ALW-II-49-7 + Crizotinib; first compound 0.08 µM) | relative viability (ALW-II-49-7 + Crizotinib; first compound 0.253 µM) | relative viability (ALW-II-49-7 + Crizotinib; first compound 0.8 µM) | relative viability (ALW-II-49-7 + Crizotinib; first compound 2.53 µM) | relative viability (ALW-II-49-7 + Crizotinib; first compound 8 µM) | relative viability (XMD13-2 + Phenformin; first compound 0.05 µM) | relative viability (XMD13-2 + Phenformin; first compound 0.1581 µM) | relative viability (XMD13-2 + Phenformin; first compound 0.5 µM) | relative viability (XMD13-2 + Phenformin; first compound 1.581 µM) | relative viability (XMD13-2 + Phenformin; first compound 5 µM) | relative viability (XMD13-2 + Foretinib; first compound 0.05 µM) | relative viability (XMD13-2 + Foretinib; first compound 0.1581 µM) | relative viability (XMD13-2 + Foretinib; first compound 0.5 µM) | relative viability (XMD13-2 + Foretinib; first compound 1.581 µM) | relative viability (XMD13-2 + Foretinib; first compound 5 µM) | relative viability (ALW-II-49-7 + Lapatinib; first compound 0.08 µM) | relative viability (ALW-II-49-7 + Lapatinib; first compound 0.253 µM) | relative viability (ALW-II-49-7 + Lapatinib; first compound 0.8 µM) | relative viability (ALW-II-49-7 + Lapatinib; first compound 8 µM) | relative viability (ALW-II-49-7 + Lapatinib; first compound 2.53 µM) |
| --- | --- | --- | --- | --- | --- | --- | --- | --- | --- | --- | --- | --- | --- | --- | --- | --- | --- | --- | --- | --- |
| SK-LU-1 | 0.863 | 0.898 | 0.988 | 0.853 | 0.584 | 0.609 | 0.528 | 0.594 | 0.592 | 0.525 | 1.04 | 0.854 | 0.933 | 0.81 | 0.697 | 0.738 | 0.984 | 0.774 | 0.607 |  |
| HCC-78 | 0.335 | 0.321 | 0.32 | 0.297 | 0.371 | 0.831 | 0.755 | 0.661 | 0.671 | 0.684 | 0.541 | 0.539 | 0.502 | 0.51 | 0.487 | 0.779 | 0.957 | 0.993 | 0.623 | 0.878 |
| LCLC-97TM1 | 0.609 | 0.262 | 0.532 | 0.313 | 0.297 | 0.441 | 0.441 | 0.425 | 0.492 | 0.459 | 1.04 | 0.918 | 0.975 | 0.965 | 0.685 | 1.03 | 1.06 | 1.06 | 1.01 | 0.842 |
| NCI-H1563 | 0.927 | 0.842 | 0.858 | 0.774 | 0.867 | 0.683 | 0.697 | 0.64 | 0.669 | 0.679 | 0.883 | 1.06 | 0.99 | 0.961 | 0.866 | 1.07 | 0.92 | 1.16 | 0.897 | 0.837 |
| NCI-H838 | 0.851 | 0.871 | 0.854 | 0.788 | 1 | 0.663 | 0.538 | 0.65 | 0.544 | 0.632 | 1.19 | 1.05 | 1.01 | 1.04 | 1.01 | 0.941 | 0.887 | 0.797 | 0.853 | 1.04 |
| NCI-H520 | 0.751 | 0.638 |  | 0.682 | 0.723 | 0.529 | 0.604 | 0.591 | 0.529 | 0.499 | 0.876 | 0.754 | 0.536 | 0.637 | 0.402 | 0.666 | 0.544 |  | 0.846 | 0.627 |
| NCI-H2347 | 0.683 | 0.69 | 0.676 | 0.671 | 0.583 | 0.615 | 0.507 | 0.404 | 0.26 | 0.51 | 0.986 | 0.992 | 1.17 | 0.848 | 1.1 | 1.11 | 0.958 | 1.11 | 0.8 | 0.85 |
| NCI-H1944 | 1.14 | 0.981 | 1.06 | 1.09 | 1.12 | 0.219 | 0.224 | 0.225 | 0.23 | 0.203 | 0.898 | 0.886 | 0.935 | 1.04 | 0.946 | 0.82 | 0.915 | 0.843 | 0.623 | 0.889 |
| NCI-H2405 | 0.928 | 0.806 | 0.832 | 0.826 | 0.68 | 0.436 | 0.417 | 0.411 | 0.397 | 0.438 | 1.09 | 1 | 1.09 | 1.06 | 1.04 | 1.01 | 1.24 | 0.972 | 0.89 | 0.938 |
| HCC-15 | 0.805 | 0.86 | 0.786 | 0.831 | 0.886 | 0.609 | 0.523 | 0.546 | 0.456 | 0.407 | 1.14 | 1 | 1.14 | 0.981 | 0.62 | 0.811 | 0.818 | 0.793 | 0.764 | 0.815 |
